Results as given in US8329149B2, “Topical lightening composition and uses thereof” (Avon Products, Inc., priority 2009, dated 2012).

System: B16 mouse melanoma cells
Experiment: B16 inhibition assay (melanin synthesis, normalized to MTT cell viability)
Format: cell-based
Conditions: 7 days
Method: The B16 assay uses a cell line derived from mice with inhibition of tyrosinase as the end point. For the B16 assay, the active oxobutanoic acid tyrosinase inhibitors as disclosed herein in Table 1 were tested in a monolayer cell culture of B16 mouse melanoma cells. These cells are known to constitutively produce melanin and are a commonly utilized and accepted model system for monitoring the inhibition of melanin synthesis.
The B16 mouse melanoma cells were seeded (ATCC, cat. #: CRL-6475) into 96-well tissue culture-treated plates (BD Falcon) and treated with test actives diluted in DMEM without phenol red (Mediatech; cat. #: 17-205-CV) and examined for their ability to modulate pigment formation. Kojic acid was used as the positive control inhibitor. Cells were exposed to diluted test material or controls for 7 days. Following the treatment period, the level of pigment produced or melanin synthesized was quantified by reading the absorbance at 540 nm using a standard microplate reader (Tecan Group Ltd.).
After quantifying the amount of melanin, cell viability was determined using the MTT conversion method. The MTT conversion method measures the reduction of the MTT dye from a yellow colored, water-soluble, tetrazolium salt to a bluish-purple colored insoluble formazan precipitate by NAD(P)H-dependent microsomal dehydrogenase enzymes, which only function in viable cells. The intensity of the blue color is indicative of cell viability. After quantifying the amount of melanin pigment produced, the cells were exposed to MTT dye solution (1 mg/ml) for two to three hours. Formazan material was solubilized with reagent alcohol (95% ethanol: 5% isopropanol) and shaken on an orbital shaker for 15-30 minutes. MTT dye uptake and conversion by viable cells were determined by measuring the extracted formazan at 570 nm using a microplate reader. Total pigmentation was calculated, normalized to cell viability values and expressed as percent activity relative to control. The compounds A-H of Table 1 in a weight percent ranging from about 0.0002% to about 0.002% inhibited tyrosinase by a percent ranging from about 29% to about 87%. […]

Row | SMILES | B16 Results Percent inhibition of melanin (concentration 0.0001%) | B16 Results Percent inhibition of melanin (concentration 0.001%)
1 | Cc1ccc(C(=O)CC(NCc2ccco2)C(=O)O)cc1 (stereo not drawn) [I, 2-(2-furanylmethylamino)-4-(4′-methylphenyl)-4-oxobutanoic acid] | −20% | −71%
2 | COc1ccc(C(=O)CC(NCc2cccnc2)C(=O)O)cc1 (stereo not drawn) [J, 2-(3-pyridylmethylamino)-4-(4′-methoxyphenyl)-4-oxobutanoic acid] | −27.84% | −53.63%
3 | Cc1ccc(C(=O)CC(NCc2ccccc2)C(=O)O)cc1 (stereo not drawn) [K, 2-(benzylamino)-4-(4′-methylphenyl)-4-oxobutanoic acid] | −46% | −67%
